Laboratory results as given in patent US11911439B2, “Beta-casein A2 and prevention of inflammation of the bowel” (THE A2 MILK COMPANY LIMITED, priority 2013, dated 2024).
Where a SMILES comes first, the peptide text is derived from it.

What was measured:
SH-SY5Y neuronal cells = test: Intracellular cysteine, GSH and methylation metabolites by HPLC; type: cell-based, human
Protocol: Briefly, SH-SY5Y neuronal cells were grown to confluence in α-MEM. Media was aspirated and the cells were washed twice with 1 mL of ice cold HBSS. HBSS was aspirated and 0.6 mL ice cold dH2O was added to the cells. The cells were scraped from the flask/dish and suspended in dH2O. The cell suspension was sonicated for 15 s on ice and 100 μL of the suspension was used to determine the protein content. The remaining lysate was added to a microcentrifuge tube and an equal volume of 0.4 N perchloric acid was added, followed by incubation on ice for 5 min. Samples were centrifuged at 5,000×g and the supernatant transferred to new microcentrifuge tubes. 100 μL of sample was added to a conical micro-autosampler vial and kept at 4° C. in the autosampler cooling tray. 10 μL of this sample was injected into the HPLC system.
The separation of redox and methylation pathway metabolites was accomplished using an Agilent Eclipse XDB-C8 analytical column (3×150 mm; 3.5 μm) and an Agilent Eclipse XDB-C8 (4.6×12.5 mm; 5 μm) guard column. Two mobile phases were used: Mobile Phase A was 0% acetonitrile, 25 mM sodium phosphate, 1.4 mM 1-octanesulfonic acid, adjusted to pH 2.65 with phosphoric acid. Mobile Phase B was 50% acetonitrile. The flow rate was initially set at 0.6 mL/min and a step gradient was used: 0-9 min 0% B, 9-19 min 50% B, 19-30 min 50% B. The column was then equilibrated with 5% B for 12 min prior to the next run. Temperature was maintained at 27° C. The electrochemical detector was an ESA CoulArray with BDD Analytical cell Model 5040 and the operating potential was set at 1500 mV. Sample concentrations were determined from the peak areas of metabolites using standard calibration curves and ESA-supplied HPLC software. Sample concentrations were normalised against protein content. In some cases samples were diluted in mobile phase as needed or up to 50 μl of sample was injected to assure that thiol levels were within the range of the standard curve.

[1] = tested on: SH-SY5Y human neuronal cells
Protocol: (§1) Pre-treatment in cells was performed for different time points for 30 min, 4, 24 and 48 h as described previously (Trivedi M., et al.; Mol. Pharm., 2014). Briefly, SH-SY5Y human neuronal cells and Caco-2 Gut epithelial cells were plated in six-well plates and were pretreated with drugs and incubated for various times prior to measuring uptake. Media were aspirated and cells were washed with 600 μL of HBSS at 37° C. Non-radioactive HBSS was aspirated, replaced with 600 μL of 37° C. HBSS containing [^35S]-cysteine, (1 μCi/1 mL), 10 μM unlabelled cysteine and 100 μM DTT, and the cells were incubated for 5 min. The [^35S]-cysteine/HBSS mixture was aspirated and treatment was terminated by two washes with ice-cold HBSS. Cells were then lysed with 600 μL of dH2O, scraped, collected in 1.5 mL microcentrifuge tubes, and sonicated for 10 s. 100 μL of each sample was aliquoted for protein assay. 200 μL of each sample (in triplicate) was aliquoted into scintillation vials with 4 mL of scintillation fluid, vortexed, and counted for radioactivity, normalized against protein content. […] Each * symbol in these Figures indicates a statistically significant difference (p<0.05) compared against the untreated control, and each #symbol indicates a statistically significant difference (p<0.005) compared against the untreated control.

[2] = tested on: Caco-2 Gut epithelial cells; settings: read-out: IC50 inhibition of cysteine uptake; GI epithelial cells
Protocol: as §1

SH-SY5Y cells [3] = test: Global DNA methylation by MBD-seq; type: cell-based, human; settings: after BCM-7 exposure
Protocol: (§2) The changes in SAM/SAH could potentially affect global DNA methylation, influencing the genes involved in various functions. The global DNA methylation levels induced by BCM-7 were investigated using methyl-CpG binding domain (MBD) protein-enriched genome sequencing (MBD-seq) as described previously (Trivedi M., et al., Mol. Pharm. 2014), whereas mRNA translation microarray data was obtained using Agilent V3 microarray chip, from non-treated control SH-SY5Y cells and cells treated for 4 hours with 1 μM BCM-7.
Briefly, genomic DNA was extracted from samples with the Easy DNA kit (Invitrogen K1800-01) using the appropriate protocol for cell lines. Fragmentation was performed on Covaris S2 with the following settings: duty cycle 10%, intensity 5, 200 cycles per burst during 200 sec. Fragments were obtained having an average length of 200 bp. […] DNA with an input from 5-3 3 μg was analysed on the Agilent 2100 using a DNA 1000 chip. […] The concentrations of fragmented and captured DNA were determined on a Fluostar Optima plate reader with the Quant-IT PicoGreen dsDNA Assay Kit (Invitrogen P7589) at 480/520 nm. […]
The Illumina library amplification index protocol was used with the following alterations: 22 μl DNA was used and performed 21 cycles run. […] 1 μl was applied to a Agilent 2100 HS DNA chip and the concentration was determined by smear analysis on the Agilent 2100. […]

SH-SY5Y cells [4] = test: Whole genome mRNA microarray; type: cell-based, human; settings: FDR<0.1; for differentially expressed transcripts (DETs): cells treated for 4 hours
Protocol: as §2
For whole genome microarray hybridisations, 500 ng of total RNA from each sample was labelled with fluorescent dye (Cy3; Amersham Biosciences Corp, Piscataway, NJ) using the Low RNA Input Linear Amplification Labelling kit (Agilent Technologies, Palo Alto, CA) following the manufacturer's protocol. The amount and quality of the fluorescently labelled cRNA was assessed using a NanoDrop ND-1000 spectrophotometer and an Agilent Bioanalyzer. According to manufacturer's specifications, […] of Cy3-labeled cRNA was hybridized to the Agilent Human Whole Genome Oligo Microarray (Agilent Technologies, Inc., Palo Alto, CA) for 17 hrs prior to washing and scanning. Data was extracted from scanned images using Feature Extraction Software (Agilent Technologies, Inc., Palo Alto, CA).
Transcripts included both genes and non-coding RNAs that were differentially methylated/transcribed.

[5] = tested on: jejunum myeloperoxidase (MPO) activity; test: Jejunum MPO activity in rats fed A1/A2 diets; type: in vivo, Wistar rats; settings: on consumption of beta-casein A1
Protocol: (§3) Seventy two weaned (four week old) male Wistar rats were used. Following a 7-day acclimatisation period on a control diet, the rats were fed for either 12 or 60 hours with one of three diets: 100% A1 diet, 100% A2 diet, control diet (n=6 per treatment). The protein component of the diets were derived from skim milk (for the A1 and A2 diets) and on egg white (for the non-milk protein control diet), and were balanced for energy and macronutrient composition (see Table 1). Fifteen minutes before the end of the time period, rats received either naloxone or saline (control) via intra-peritoneal injection, and were then orally gavaged with a non-digestible tracer, titanium dioxide. Faecal and urine samples were collected at 7 time points over the following 24 hours, and stored at −20° C. (faecal) or −80° C. (urine) until they were analysed.
(§4) Colon tissue from the rats fed according to Example 1 was quantified for myeloperoxidase (MPO) activity based on an established method (Grisham, M. B., et al., Methods Enzymol., 1990, 186:729-742). Colon tissue (50 mg) was homogenised, partitioned via centrifugation, ruptured by ultrasonic probe and subjected to a freeze-thaw cycle. Endogenous MPO catalyses H2O2-dependent oxidation of 3,3′,5,5′-tetramethyl-benzidine substrate measured colourimetrically at 562 nm. […]
In this example, tissue samples taken from the jejunum were analysed. […]

[6] = tested on: colon myeloperoxidase (MPO) activity; test: Colon MPO activity in rats fed A1/A2 diets; type: in vivo, Wistar rats
Protocol: as §3, §4

colon tissue = test: Intestinal histology of colon sections; type: in vivo, Wistar rats; settings: 60 hour naloxone group, A2-fed versus A1-fed rats, P<0.05
Protocol: as §3
The procedure used for measuring change in morphology in the gastrointestinal tract of rats is based on histological evaluation of haemoxylin and eosin stained tissue sections under a light microscope (Knoch, B. et al., J. Nutrigenet. Nutrigenomics, 2009, 2(1):9-28 and Barnett, M. P., BMC Immunol., 2010, 11:39). This method was applied to sections derived from colon tissue of rats fed either the 100% A1 or 100% A2 diets to determine the effects of the beta-casein variants on intestinal inflammation.

[7] = neuronal cells, 30 min, 4 h, 24 h

For `CC[C@H](C)[C@H](NC(=O)[C@@H]1CCCN1C(=O)CNC(=O)[C@@H]1CCCN1C(=O)[C@H](Cc1ccccc1)NC(=O)[C@@H]1CCCN1C(=O)[C@@H](N)Cc1ccc(O)cc1)C(=O)O` [BCM-7, beta-casomorphin-7] (H-YPFPGPI-OH; N-terminus and C-terminus assumed), the “ratio of SAM/SAH (methylation capacity)” value (SH-SY5Y neuronal cells; different time points) was “affected”, the GSH levels (SH-SY5Y neuronal cells; [7]) was “time-dependent decreases” and the cysteine levels (SH-SY5Y neuronal cells; [7]) was “time-dependent decreases”. The “GSH/GSSG ratio (redox status)” value (SH-SY5Y neuronal cells; neuronal cells, over time) was “decreased”, the “receptor mediation of cysteine uptake inhibition” value ([1]; blockade by selective μ-antagonist (CTAP), not by delta antagonist (NTI)) was “μ-opioid receptor mediated” and the “time at which inhibition of cysteine uptake was fully developed” value ([1]; neuronal cells and GI epithelial cells (FIG. 6)) was 30 min. For the same molecule, the IC50 ([1]; read-out: IC50 inhibition of cysteine uptake, neuronal cells) was 1.31 nM, the IC50 [2] was 15.9 nM and the “epigenetic status (DNA methylation) of cytokines such as NFkappaB and interleukins such as IL1” value (SH-SY5Y cells [3]) was “altered”. The “epigenetic status of the MPO gene” value (SH-SY5Y cells [3]) was “alters the epigenetic status”, the “DETs shared by both morphine and BCM-7” value (SH-SY5Y cells [4]) was 501 and the “differentially expressed transcripts (DETs)” value (SH-SY5Y cells [4]) was 1,467.

In the case of `CN1CC[C@]23c4c5ccc(O)c4O[C@H]2[C@@H](O)C=C[C@H]3[C@H]1C5` [morphine], the cysteine levels (SH-SY5Y neuronal cells; [7]) is reported as “time-dependent decreases”, the “DETs shared by both morphine and BCM-7” value (SH-SY5Y cells [4]) is reported as 501 and the “differentially expressed transcripts (DETs)” value (SH-SY5Y cells [4]) is reported as 7,592.

B1: beta-casein A1 (protein, UniProt P02666 16-224, looked up, variant P67H)
Beta-casein: RELEELNVPGEIVESLSSSEESITRINKKIEKFQSEEQQQTEDELQDKIHPFAQTQSLVYPFPGPIHNSLPQNIPPLTQTPVVVPPFLQPEVMGVSKVKEAMAPKHKEMPFPKYPVEPFTESQSLTLTDVENLHLPLPLLQSWMHQPHQPLPPTVMFPPQSVLSLSQSKVLPVPQKAVPYPQRDMPIQAFLLYQEPVLGPVRGPFPIIV
In the case of B1, the “inflammation in the small intestine (jejunum MPO)” value [5] is reported as “no observable increase”, the “colon MPO activity” value ([6]; beta-casein A1-fed rats compared to beta-casein A2-fed rats) is reported as “increased” and the “effect on colon MPO activity in rats treated with naloxone” value ([6]; rats treated with naloxone) is reported as “not observed”.

B2: beta-casein A2 (protein, UniProt P02666 16-224, looked up)
Beta-casein: RELEELNVPGEIVESLSSSEESITRINKKIEKFQSEEQQQTEDELQDKIHPFAQTQSLVYPFPGPIPNSLPQNIPPLTQTPVVVPPFLQPEVMGVSKVKEAMAPKHKEMPFPKYPVEPFTESQSLTLTDVENLHLPLPLLQSWMHQPHQPLPPTVMFPPQSVLSLSQSKVLPVPQKAVPYPQRDMPIQAFLLYQEPVLGPVRGPFPIIV
notes: any beta-casein having proline at position 67
In the case of B2, the histology score (colon tissue) is reported as “significantly higher score”.
